# Where no end group is shown, it is not given here.
# Test system: female rats
# Assay: Subcutaneous administration to female rats: GH effects and anti-peptide antibody
# Assay type: in vivo
substance,measurement,value
"Ac-GTSDRVYEKLAGSKNFFWKTFTSS [P7, Acetyl-GTSDRVYEKLAGSKNFFWKTFTSS]",anti-peptide antibody induction,"without inducing, nevertheless, anti-peptide antibody"

# — patent US9657080B2, “Methods for treating diseases with peptides that inhibit IGF-1” (Universite Pierre et Marie Curie (Paris 6), priority 2009, dated 2017)
